Reference: ChEMBL document CHEMBL1201862, “PubChem BioAssay data set” (2004)
Active and inactive are the calls of the source. Rule as the data show it, for most assays here: actives have a measured EC50 and inactives only a lower limit.

Assays:
[1] = molecular target: T1, RNA-binding protein pos-1 (Caenorhabditis elegans, UniProt G5EF15); assay: inhibitors of POS-1/mex-3 RNA binding, dose response, biochemical, fluorescence polarization (AID 1964);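 also: purified POS-1 fused to maltose binding protein made in E. coli; potency of compounds blocking POS-1 binding to fluorescent RNA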
T1 sequence (G5EF15 whole entry): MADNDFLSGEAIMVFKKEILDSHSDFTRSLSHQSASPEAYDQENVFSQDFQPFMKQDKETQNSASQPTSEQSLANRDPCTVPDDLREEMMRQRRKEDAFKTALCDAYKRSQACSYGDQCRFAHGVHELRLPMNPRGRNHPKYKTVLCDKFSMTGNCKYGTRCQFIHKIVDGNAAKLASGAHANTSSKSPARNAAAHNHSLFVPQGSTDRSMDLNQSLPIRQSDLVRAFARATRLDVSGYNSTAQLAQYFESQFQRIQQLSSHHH

[2] = molecular target: T2, Zinc finger protein mex-5 (Caenorhabditis elegans, UniProt Q9XUB2); assay: MEX-5/TCR-2 RNA interaction inhibitors, dose response, biochemical, C. elegans, fluorescence polarization (AID 1960)
T2 sequence (Q9XUB2 whole entry): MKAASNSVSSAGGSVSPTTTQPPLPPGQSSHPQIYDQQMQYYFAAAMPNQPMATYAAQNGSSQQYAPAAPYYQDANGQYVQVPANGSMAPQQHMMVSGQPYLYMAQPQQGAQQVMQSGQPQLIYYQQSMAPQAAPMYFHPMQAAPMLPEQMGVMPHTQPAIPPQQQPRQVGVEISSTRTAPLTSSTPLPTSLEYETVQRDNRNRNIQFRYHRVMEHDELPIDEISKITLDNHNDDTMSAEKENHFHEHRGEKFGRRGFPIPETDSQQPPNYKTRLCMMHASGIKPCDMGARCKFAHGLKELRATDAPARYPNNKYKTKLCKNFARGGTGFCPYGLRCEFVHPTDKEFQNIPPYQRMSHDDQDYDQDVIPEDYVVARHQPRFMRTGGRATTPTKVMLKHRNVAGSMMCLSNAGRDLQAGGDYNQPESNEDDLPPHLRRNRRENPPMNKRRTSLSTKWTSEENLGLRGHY

[3] = molecular target: T3, Replicative DNA helicase DnaB (Mycobacterium tuberculosis, UniProt P9WMR3); assay: DnaB intein splicing inhibitors, dose response, biochemical, cell-free fluorescence (AID 449749); type: functional
T3 sequence (P9WMR3 whole entry): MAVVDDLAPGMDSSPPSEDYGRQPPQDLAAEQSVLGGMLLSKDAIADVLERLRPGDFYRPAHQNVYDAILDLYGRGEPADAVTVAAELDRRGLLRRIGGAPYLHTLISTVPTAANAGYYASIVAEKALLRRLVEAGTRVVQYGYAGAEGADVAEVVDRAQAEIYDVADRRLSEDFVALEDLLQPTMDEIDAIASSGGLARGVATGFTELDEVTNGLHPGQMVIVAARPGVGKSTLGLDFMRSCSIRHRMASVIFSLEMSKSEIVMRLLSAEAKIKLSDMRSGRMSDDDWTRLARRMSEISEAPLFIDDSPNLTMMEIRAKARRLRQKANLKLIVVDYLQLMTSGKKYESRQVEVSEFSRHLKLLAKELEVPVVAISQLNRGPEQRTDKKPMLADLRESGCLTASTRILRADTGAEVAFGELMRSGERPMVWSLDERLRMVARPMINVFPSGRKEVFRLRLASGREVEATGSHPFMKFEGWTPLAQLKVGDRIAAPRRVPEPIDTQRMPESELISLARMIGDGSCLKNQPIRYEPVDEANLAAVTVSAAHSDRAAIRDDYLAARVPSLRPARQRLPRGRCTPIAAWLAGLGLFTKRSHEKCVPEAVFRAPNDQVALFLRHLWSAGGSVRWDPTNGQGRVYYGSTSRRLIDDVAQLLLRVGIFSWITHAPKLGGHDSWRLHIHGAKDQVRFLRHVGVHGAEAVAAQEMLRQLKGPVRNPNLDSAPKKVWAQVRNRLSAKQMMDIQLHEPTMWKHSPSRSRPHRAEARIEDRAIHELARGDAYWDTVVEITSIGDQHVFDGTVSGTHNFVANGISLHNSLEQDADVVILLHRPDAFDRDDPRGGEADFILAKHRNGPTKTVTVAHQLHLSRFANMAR

Protein RecA = molecular target: T4, Protein RecA (Mycobacterium tuberculosis, UniProt P9WHJ3); assay: Fluorescence Cell-Free Homogeneous Dose Retest to Identify Inhibitors of RecA-Intein Splicing Activity. [Related pubchem assays (depositor defined):AID2097, AID2223, AID489010, AID492950]; type: functional
T4 sequence (P9WHJ3 whole entry): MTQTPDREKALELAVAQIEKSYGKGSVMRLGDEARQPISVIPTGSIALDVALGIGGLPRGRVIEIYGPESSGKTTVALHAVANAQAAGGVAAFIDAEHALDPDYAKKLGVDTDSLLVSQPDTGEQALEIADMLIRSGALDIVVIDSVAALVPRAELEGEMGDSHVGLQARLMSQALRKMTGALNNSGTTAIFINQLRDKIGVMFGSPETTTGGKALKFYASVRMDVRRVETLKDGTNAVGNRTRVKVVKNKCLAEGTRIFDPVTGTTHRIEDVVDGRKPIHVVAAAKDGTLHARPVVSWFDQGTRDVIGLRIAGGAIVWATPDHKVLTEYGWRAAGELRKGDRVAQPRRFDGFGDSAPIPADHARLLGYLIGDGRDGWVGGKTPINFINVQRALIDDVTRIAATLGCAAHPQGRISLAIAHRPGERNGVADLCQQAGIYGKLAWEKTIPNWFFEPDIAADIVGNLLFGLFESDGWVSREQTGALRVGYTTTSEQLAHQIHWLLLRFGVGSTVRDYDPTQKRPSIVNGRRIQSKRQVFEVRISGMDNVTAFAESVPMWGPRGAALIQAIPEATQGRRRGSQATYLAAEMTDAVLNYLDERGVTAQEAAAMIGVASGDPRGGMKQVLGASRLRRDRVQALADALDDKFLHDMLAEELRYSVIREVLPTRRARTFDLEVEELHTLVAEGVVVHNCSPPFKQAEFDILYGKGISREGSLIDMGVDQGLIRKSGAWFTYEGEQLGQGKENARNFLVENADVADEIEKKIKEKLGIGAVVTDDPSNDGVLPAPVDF

[4] = molecular target: T5, Heat shock factor protein 1 (Mus musculus, UniProt P38532); assay: inhibition of MG132-induced HSE-luciferase signal, confirmation, cell-based, NIH3T3, luminescence, dose retest (AID 2382); type: functional;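 also: NIH3T3 fibroblasts with HSF1-driven luciferase reporter stressed by proteasome inhibitor MG132; luminescence from HSF1-driven luciferase expression after 8 hours of MG132 stress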
T5 sequence (P38532 whole entry): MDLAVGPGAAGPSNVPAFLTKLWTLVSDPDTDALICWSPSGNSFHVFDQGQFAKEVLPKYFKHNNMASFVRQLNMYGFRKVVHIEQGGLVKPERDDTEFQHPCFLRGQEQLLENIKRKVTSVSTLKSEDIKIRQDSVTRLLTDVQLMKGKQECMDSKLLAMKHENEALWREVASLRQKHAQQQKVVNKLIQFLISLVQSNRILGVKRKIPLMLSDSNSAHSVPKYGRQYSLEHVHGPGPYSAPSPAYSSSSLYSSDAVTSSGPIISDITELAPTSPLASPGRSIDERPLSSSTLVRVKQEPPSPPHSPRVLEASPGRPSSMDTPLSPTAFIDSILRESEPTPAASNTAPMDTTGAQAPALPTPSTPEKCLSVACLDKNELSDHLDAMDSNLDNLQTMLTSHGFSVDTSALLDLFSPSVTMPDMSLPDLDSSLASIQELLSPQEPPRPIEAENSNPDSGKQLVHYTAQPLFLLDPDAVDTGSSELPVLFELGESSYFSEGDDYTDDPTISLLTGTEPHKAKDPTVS

[5] = HEp-2 cell cytotoxicity, dose response, cytotoxicity control for RSV inhibitor project, HTS (AID 2410); type: functional; settings: human respiratory syncytial virus
[6] = Luminescence Cell-Based Dose Confirmation HTS to Identify Activators of 5'UTR Stem-Loop Driven Alpha-Synuclein mRNA Translation in H4 Neuroglioblastoma Cells. [Related pubchem assays: 1829 (Project Summary), 1814 (Primary HTS)]; type: functional
[7] = Luminescence Cell-Based Dose Response HTS to Identify Activators of Luciferase Translation or Activity in H4 […] Cells. [Related pubchem assays: 1829 (Project Summary), 1814 (Primary HTS)]; type: functional
H4 = assay: Luminescence Cell-Based Dose Response HTS to Identify Activators of 5'UTR Stem-Loop Driven Prion Protein mRNA Translation in H4 Neuroglioblastoma Cells. [Related pubchem assays: 1829 (Project Summary), 1814 (Primary HTS)]; type: functional; settings: Homo sapiens
Paired box protein Pax-8 = Paired box protein Pax-8 (Homo sapiens, UniProt Q06710); assay: inhibitors of PAX8-driven TPO luciferase reporter, dose response, RMG-I cells, cherry-pick (AID 687027); type: functional, cell-based;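 also: luciferase reporter driven by Pax8 target thyroperoxidase promoter measured by SteadyGlo luminescence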
Paired box protein Pax-8, sequence (Q06710 whole entry): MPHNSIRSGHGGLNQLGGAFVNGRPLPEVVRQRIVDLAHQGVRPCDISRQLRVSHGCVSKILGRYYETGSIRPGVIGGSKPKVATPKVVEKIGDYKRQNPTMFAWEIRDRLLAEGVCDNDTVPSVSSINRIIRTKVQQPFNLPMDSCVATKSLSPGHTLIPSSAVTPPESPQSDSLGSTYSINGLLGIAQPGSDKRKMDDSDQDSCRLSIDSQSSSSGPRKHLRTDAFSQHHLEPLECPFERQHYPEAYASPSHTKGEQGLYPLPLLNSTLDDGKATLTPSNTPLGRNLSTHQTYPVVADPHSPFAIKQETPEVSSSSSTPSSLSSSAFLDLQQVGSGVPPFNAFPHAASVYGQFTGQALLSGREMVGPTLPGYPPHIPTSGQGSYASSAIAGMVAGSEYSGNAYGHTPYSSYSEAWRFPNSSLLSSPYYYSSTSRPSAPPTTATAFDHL

Row | Compound | EC50 [1] | EC50 [2] | EC50 [4] | other results
1 | CCCCC1=CC2=C(c3ccco3)C(=O)C(C)(OC(=O)c3ccc(OC)cc3)C(=O)C2=CN1C1CC1 (configuration not stated) | > 300 µM (not active) | > 300 µM (not active) |  | 
2 | CCc1cc(=O)oc2cc(C)cc(OC(C)C(=O)O)c12 (configuration not stated) | > 300 µM (not active) | > 300 µM (not active) |  | 
3 | N#CC(C#N)=NNc1ccc(S(=O)(=O)N2CCCC2)cc1 |  |  |  | AC50 [3]: 6.9 µM (active); EC50 (Protein RecA): 23.9 µM (active)
4 | CC1=NN(c2ccccc2)C(=O)C1N=Nc1ccc(S(N)(=O)=O)cc1 (configuration not stated) |  |  | > 195 µM (not active) | 
5 | O=C(CSc1nnc(COc2ccc3c(c2)CCCC3)o1)Nc1ccc(F)cc1 |  |  | > 195 µM (not active) | 
6 | O=C(N1CCOCC1)N1CCC(n2nnc3cc(F)ccc32)CC1 | 39.2 µM (active) | 46.7 µM (inconclusive) |  | 
7 | COc1cc(SC)ccc1C(=O)NCC1CCCO1 (configuration not stated) |  |  | > 195 µM (not active) | 
8 | COC(CN(C(=O)CCl)C(C(=O)NC1CCCCC1)c1ccc(C)cc1)OC (configuration not stated) |  |  |  | AC50 [3]: > 380 µM (inactive); EC50 (Protein RecA): 7 µM (active)
9 | CCN(CC)c1ccc(C=C2C(=O)OC(C)(C(C)(C)C)OC2=O)cc1 (configuration not stated) | > 300 µM (inconclusive) | > 300 µM (inconclusive) |  | 
10 | CC(c1ccc(O)cc1)(c1ccc(O)cc1)c1ccc(CCBr)cc1 |  |  |  | AC50 [3]: 46.4 µM (active); CC50 [5]: 17.4 µM (active); EC50 (Protein RecA): 9.45 µM (active)
11 | CCOC(=O)c1cnc2ccc(C)cc2c1Sc1ccccc1 |  |  |  | AC50 [3]: 5.63 µM (active); EC50 (Protein RecA): 5.87 µM (active)
12 | CC1(C)CC(=O)C2=C(C1)N(Cc1ccccc1)C(=O)C2(NC(=O)C(C)(C)C)C(F)(F)F (configuration not stated) |  |  | > 195 µM (not active) | 
13 | COc1ccc(Nc2nc3ccccc3nc2NS(=O)(=O)c2cccs2)cc1 | > 300 µM (inconclusive) | 34.8 µM (active) |  | 
14 | COc1cc2c(cc1/C=C1/NC(=O)N(c3ccccc3)C1=O)OCO2 | > 300 µM (not active) | > 300 µM (not active) |  | 
15 | Cc1c(C(=O)Nc2ccc(F)cc2)sc2ncn(CC(=O)N3CCCCC3)c(=O)c12 |  |  | > 195 µM (not active) | 
16 | COc1ccc(Cl)cc1NC(=O)CSc1nc2ccsc2c(=O)n1CC1CCC(C(=O)O)CC1 (configuration not stated) |  |  | > 195 µM (not active) | CC50 [5]: > 50 µM (active)
17 | CCOC(=O)c1ccc(NC(=O)C2C3C=CC(O3)C2C(=O)O)cc1 (configuration not stated) |  |  | > 195 µM (not active) | EC50 [6]: > 60 µM (not active); EC50 [7]: > 120 µM (not active); EC50 (H4): > 120 µM (not active)
18 | Cc1ccc(S(=O)(=O)N(C)C[C@H]2Oc3ccc(NC(=O)Nc4ccc(C(F)(F)F)cc4)cc3CC(=O)N([C@@H](C)CO)C[C@H]2C)cc1 |  |  |  | AC50 (Paired box protein Pax-8): 9.45 µM (active)
19 | CCOc1ccc(/C=N/NC(=O)c2ccc(Cn3cc([N+](=O)[O-])cn3)o2)cc1 |  |  | > 195 µM (not active) | 
20 | Cc1ccc(/C=N/NC(=O)c2nnn(-c3nonc3N)c2CN(C)C2CCCCC2)cc1 |  |  | > 195 µM (not active) | 
21 | Cc1ccc(NCC(=O)N/N=C/c2ccc(C(=O)O)cc2)cc1 | > 300 µM (not active) | > 300 µM (not active) |  | 
